Data on one molecule can be found in PMC9806845, “Recombinant actin-depolymerizing factor of the apicomplexan Neospora caninum (NcADF) is susceptible to oxidation” (Frontiers in Cellular and Infection Microbiology, 2022).

The experiment concerns the target T1, NcADF (Neospora caninum, UniProt F0VCT8).
T1 construct: gene NCLIV_012510; N-terminal 6xHis tag, pET28(a), E. coli BL21(DE3), IMAC; 18 kDa; cysteines at 11, 58, 65, 75; TCEP-reduced before assay
T1 sequence (F0VCT8 1-118): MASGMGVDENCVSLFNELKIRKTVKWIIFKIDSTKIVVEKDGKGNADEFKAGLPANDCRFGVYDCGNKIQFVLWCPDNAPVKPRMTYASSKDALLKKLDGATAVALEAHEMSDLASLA
Description: DTNB free-thiol assay; also biotin-iodoacetamide alkylation and SDS-PAGE dimerization. Format: biochemical. Conditions: covalent (cysteine oxidation, reversible disulfide dimers); 25 uM protein, 20 mM Tris pH 7.0, 30 min.

Structures are written as SMILES.

Consider `O=S(=O)(O)CCNCl` [NCT, N-chlorotaurine], for which the “DTNB free-thiol assay; also biotin-iodoacetamide alkylation and SDS-PAGE dimeriz” value is reported as “micromolar concentration of NCT, but not of H2O2, was sufficient to oxidize the protein”.
